Three compounds from PMC7567858, “Structure of inhibitor-bound mammalian complex I” (Nature Communications, 2020) can be followed below.

In test [1] the target is T1, complex I (NADH:ubiquinone oxidoreductase), bovine (Bos taurus, UniProt P03887+P17694+P42026).
T1 construct: gene NDUFS2; native intact 45-subunit complex I from heart; in proteoliposomes with Q10 and AOX, or detergent-solubilised (EPR sample); with NADH-ubiquinone oxidoreductase chain 2; NADH-ubiquinone oxidoreductase chain 3; NADH-ubiquinone oxidoreductase chain 4; NADH-ubiquinone oxidoreductase chain 4L; NADH-ubiquinone oxidoreductase chain 5; NADH-ubiquinone oxidoreductase chain 6; NADH-ubiquinone oxidoreductase 75 kDa subunit, mitochondrial; NADH dehydrogenase [ubiquinone] flavoprotein 1, mitochondrial; NADH dehydrogenase [ubiquinone] flavoprotein 2, mitochondrial; NADH dehydrogenase [ubiquinone] iron-sulfur protein 3, mitochondrial; NADH dehydrogenase [ubiquinone] iron-sulfur protein 8, mitochondrial
As to the kind of experiment: NADH oxidation ([…]-380 nm) in complex I-AOX proteoliposomes. Particulars: Q10 in membrane phase (nmol per mg phospholipid), no piericidin, AOX recycling, 200 uM NADH, pH 7.5, 32 °C. In kind it is biochemical.

The target of test [2] is T2, NDUFA10 (in mouse complex I) (Mus musculus, UniProt Q99LC3).
T2 construct: supernumerary subunit within native intact complex I from mouse heart mitochondria
T2 sequence (Q99LC3 36-355): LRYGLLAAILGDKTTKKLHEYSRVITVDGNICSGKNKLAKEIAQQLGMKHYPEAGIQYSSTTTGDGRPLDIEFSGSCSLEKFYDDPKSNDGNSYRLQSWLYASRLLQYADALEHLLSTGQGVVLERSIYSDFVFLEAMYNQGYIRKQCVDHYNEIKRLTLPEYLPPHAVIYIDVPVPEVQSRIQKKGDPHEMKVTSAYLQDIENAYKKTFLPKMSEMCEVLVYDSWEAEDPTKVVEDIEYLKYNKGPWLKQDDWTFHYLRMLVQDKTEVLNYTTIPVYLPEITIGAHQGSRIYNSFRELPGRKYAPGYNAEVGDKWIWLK
Kind of test: cryo-EM structure, […] Å. Type of test: binding. The settings on record: nucleotide bound to NDUFA10, adenine stacks on Phe134.

Test [3] concerns the target T3, mouse complex I (Mus musculus, UniProt P03888+Q91WD5+Q9DC70).
T3 construct: gene Ndufs2; native intact 45-subunit complex I purified from heart mitochondria in DDM; with NADH-ubiquinone oxidoreductase chain 2; NADH-ubiquinone oxidoreductase chain 3; NADH-ubiquinone oxidoreductase chain 4; NADH-ubiquinone oxidoreductase chain 4L; NADH-ubiquinone oxidoreductase chain 5; NADH-ubiquinone oxidoreductase chain 6; NADH-ubiquinone oxidoreductase 75 kDa subunit, mitochondrial; NADH dehydrogenase [ubiquinone] flavoprotein 1, mitochondrial; NADH dehydrogenase [ubiquinone] flavoprotein 2, mitochondrial; NADH dehydrogenase [ubiquinone] iron-sulfur protein 3, mitochondrial; NADH dehydrogenase [ubiquinone] iron-sulfur protein 8, mitochondrial
As to the kind of experiment: cryo-EM structure, […] Å. Particulars: ubiquinone-binding site, active state, cluster N2 reduced; NDUFS2 His59 and Tyr108.

Test [4] addresses T1, complex I (NADH:ubiquinone oxidoreductase), bovine. As to the kind of experiment: global kinetic fit of NADH oxidation in proteoliposomes. In kind it is biochemical. The settings on record: two-site competitive model; second inhibitor binds more tightly; Q10 varied, AOX recycling, 200 uM NADH, pH 7.5, 32 °C.

The structures appear in SMILES notation.

T1 sequence (P17694 34-463): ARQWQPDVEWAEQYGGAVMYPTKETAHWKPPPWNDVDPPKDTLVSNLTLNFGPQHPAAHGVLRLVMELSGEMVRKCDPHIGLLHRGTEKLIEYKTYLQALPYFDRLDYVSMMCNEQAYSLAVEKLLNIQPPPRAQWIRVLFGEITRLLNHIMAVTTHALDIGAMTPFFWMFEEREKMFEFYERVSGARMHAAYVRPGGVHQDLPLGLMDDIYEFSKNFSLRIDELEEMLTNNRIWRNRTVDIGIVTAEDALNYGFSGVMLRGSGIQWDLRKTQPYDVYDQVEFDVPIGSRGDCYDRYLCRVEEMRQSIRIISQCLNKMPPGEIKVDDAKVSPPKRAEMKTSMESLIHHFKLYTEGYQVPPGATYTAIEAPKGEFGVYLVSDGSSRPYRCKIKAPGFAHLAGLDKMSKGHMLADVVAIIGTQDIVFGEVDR
T1 sequence (P42026 38-216): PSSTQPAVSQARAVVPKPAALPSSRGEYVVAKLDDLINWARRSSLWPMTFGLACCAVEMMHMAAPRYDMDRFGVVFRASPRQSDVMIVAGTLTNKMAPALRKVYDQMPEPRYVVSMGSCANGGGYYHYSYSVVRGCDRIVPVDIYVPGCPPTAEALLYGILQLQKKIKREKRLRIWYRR
T1 sequence (P03887 whole entry): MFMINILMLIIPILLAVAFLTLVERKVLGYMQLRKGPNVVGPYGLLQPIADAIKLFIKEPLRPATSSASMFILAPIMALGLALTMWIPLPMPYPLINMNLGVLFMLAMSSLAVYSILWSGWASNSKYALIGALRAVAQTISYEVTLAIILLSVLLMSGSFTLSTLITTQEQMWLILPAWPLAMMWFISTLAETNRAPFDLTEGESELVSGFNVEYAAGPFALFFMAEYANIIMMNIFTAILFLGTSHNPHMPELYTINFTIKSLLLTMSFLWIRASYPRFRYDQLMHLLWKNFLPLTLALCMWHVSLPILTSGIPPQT
T3 sequence (Q91WD5 34-463): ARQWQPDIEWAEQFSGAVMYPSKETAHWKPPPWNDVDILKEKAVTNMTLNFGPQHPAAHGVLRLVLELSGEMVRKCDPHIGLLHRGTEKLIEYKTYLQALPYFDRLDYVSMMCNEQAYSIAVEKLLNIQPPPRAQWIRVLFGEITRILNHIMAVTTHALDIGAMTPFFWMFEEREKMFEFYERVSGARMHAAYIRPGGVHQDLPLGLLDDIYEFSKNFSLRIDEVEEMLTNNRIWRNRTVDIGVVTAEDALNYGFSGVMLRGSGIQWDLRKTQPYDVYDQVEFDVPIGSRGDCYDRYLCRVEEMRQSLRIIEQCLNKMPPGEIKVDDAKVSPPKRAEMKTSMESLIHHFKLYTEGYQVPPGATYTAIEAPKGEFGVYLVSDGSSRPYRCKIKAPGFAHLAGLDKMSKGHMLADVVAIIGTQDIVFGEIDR
T3 sequence (Q9DC70 36-224): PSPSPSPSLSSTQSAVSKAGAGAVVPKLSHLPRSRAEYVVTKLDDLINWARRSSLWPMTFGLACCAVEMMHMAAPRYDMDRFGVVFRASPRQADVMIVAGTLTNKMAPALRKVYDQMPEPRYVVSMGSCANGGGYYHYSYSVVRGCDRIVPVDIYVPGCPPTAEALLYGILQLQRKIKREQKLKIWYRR
T3 sequence (P03888 whole entry): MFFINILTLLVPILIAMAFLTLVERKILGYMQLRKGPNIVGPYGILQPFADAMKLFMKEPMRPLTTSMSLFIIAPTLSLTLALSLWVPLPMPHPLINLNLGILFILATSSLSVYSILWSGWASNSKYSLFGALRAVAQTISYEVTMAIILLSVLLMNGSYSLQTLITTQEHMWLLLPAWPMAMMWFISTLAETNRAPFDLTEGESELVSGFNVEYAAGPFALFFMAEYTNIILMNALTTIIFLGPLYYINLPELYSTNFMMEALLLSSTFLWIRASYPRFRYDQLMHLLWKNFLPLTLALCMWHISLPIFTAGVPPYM

Take `COC1=C(OC)C(=O)C(C/C=C(\C)CC/C=C(\C)CC/C=C(\C)CC/C=C(\C)CC/C=C(\C)CC/C=C(\C)CC/C=C(\C)CC/C=C(\C)CC/C=C(\C)CCC=C(C)C)=C(C)C1=O` [Q10]: the “KM,app” value in test [1] is on record as “modelled by a series of Michaelis–Menten curves for their Q10 dependence”.
For `Nc1ncnc2c1ncn2[C@@H]1O[C@H](COP(=O)(O)OP(=O)(O)OP(=O)(O)O)[C@@H](O)[C@H]1O` [ATP], in test [2], the “cryo-EM structure, 3.0 Å” value is “replacement of the ADP bound to NDUFA10 with ATP”.
With `C/C=C(\C)[C@H](O)[C@H](C)/C=C(C)/C=C/C/C(C)=C/Cc1nc(OC)c(OC)c(O)c1C` [piericidin A], the “cryo-EM structure, 3.0 Å” value in test [3] is “The piericidin headgroup binds adjacent to NDUFS2 His59 and Tyr108”. For the same compound, the KI entry in test [4] was “the second inhibitor binds substantially more tightly than the first”.
